Values after ≈ are worked out from the molar mass of the structure shown.
Assays:
Bacillus subtilis 168CA = assay: Minimum Inhibitory Concentration (MIC) testing, broth microdilution, Bacillus subtilis; type: cell-based; conditions: Bacillus subtilis 168CA; for MIC: read-out: Bacillus subtilis MICs Activity
Procedure, shortened: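 MICs were scored A (≦8 μg/ml), B (16–64 μg/ml) or C (>64 μg/ml), read as the lowest concentration preventing visible growth by eye and spectrophotometry. Plates incubated overnight (16–20 h) at 37 °C, inoculum OD 0.09 diluted 1:100 in 2× broth, per NCCLS guidelines.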

[1] = test system: Staphylococcus aureus ATCC29213; assay: Minimum Inhibitory Concentration (MIC) testing, broth microdilution, Staphylococcus aureus; type: cell-based; conditions: Staphylococcus aureus ATCC29213; for MIC: read-out: Staphylococcus aureus MICs Activity
Procedure, shortened: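 Broth microdilution per NCCLS M7-A5 in Mueller Hinton broth, with compound in 1.6% DMSO and inoculum at OD 0.09 diluted 1:100. Plates incubated 16–20 h at 37°C. MIC is the lowest concentration with no visible growth; scored A ≤8, B 16–64, C >64 μg/ml.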

Molecule	MIC (Bacillus subtilis 168CA) [µg/mL]	MIC [1] [µg/mL]	Bacillus subtilis MICs Activity (Bacillus subtilis 168CA)	Staphylococcus aureus MICs Activity [1]
CC/C=C\CC/C=C/COc1cccc(C(N)=O)c1 [Example 56, 3-[(2E,6Z)-2,6-Nonadienyloxy]benzenecarboxamide]	< 8	< 8		
NC(=O)c1c(F)ccc(OCc2csc(Nc3ccccc3)n2)c1F [Example 237, 3-[(2-Anilino-1,3-thiazol-4-yl)methoxy]-2,6-difluorobenzenecarboxamide]	16 to 64 (≈ 44.3 to 177 µM)	16 to 64 (≈ 44.3 to 177 µM)		
NC(=O)c1c(F)ccc(OCc2nc3c(Cl)cccc3s2)c1F [Example 226, 3-[(4-Chloro-1,3-benzothiazol-2-yl)methoxy]-2,6-difluorobenzenecarboxamide]	16 to 64 (≈ 45.1 to 180 µM)	16 to 64 (≈ 45.1 to 180 µM)		
COc1ccc(-c2nc(COc3ccc(F)c(C(N)=O)c3F)sc2-c2nccs2)cc1 [Example 155, 2,6-Difluoro-3-[4′-(4-methoxy-phenyl)-[2,5′]bithiazolyl-2′-ylmethoxy]-benzamide]	< 8	< 8		
CCCCCCCCCCOc1ccc(F)c(C(N)=O)c1 [Example 71, 2-Fluoro-5-(decyloxy)benzenecarboxamide]	< 8	< 8		
NC(=O)c1c(F)ccc(OCc2nc3cccc(Cl)c3s2)c1F [Example 104, 2,6-Difluoro-3-(7-chloro-benzothiazol-2-ylmethoxy)-benzamide]	< 8	< 8		
NC(=O)c1c(F)ccc(OCc2nc(-c3ccc(Cl)cc3)c(Br)s2)c1F [Example 159, 3-[5-Bromo-4-(4-chloro-phenyl)-thiazol-2-ylmethoxy]-2,6-difluoro-benzamide]	< 8	< 8		
NC(=O)c1c(F)ccc(OCc2nc(-c3ccc(Cl)cc3)cs2)c1Cl [Example 274, 2-Chloro-3-[4-(4-chloro-phenyl)-thiazol-2-ylmethoxy]-6-fluoro-benzamide]	< 8	< 8		
C#CCCCCCCCCCOc1ccc(Cl)c(C(N)=O)c1 [Example 69, 2-Chloro-5-(10-undecynyloxy)benzenecarboxamide]	< 8	< 8		
CCC(C)CCOc1cccc(C(N)=O)c1 (stereo not drawn) [Example 60, 3-[(3-Methylpentyl)oxy]benzenecarboxamide]	16 to 64 (≈ 72.3 to 289 µM)	16 to 64 (≈ 72.3 to 289 µM)		
NC(=O)c1c(F)ccc(OCc2nc3cc(C4CCCC4)ccc3s2)c1F [Example 317]	< 8	< 8		
NC(=O)c1c(F)ccc(OCc2nc3cc(C4=CCCCC4)ccc3s2)c1F [Example 314]	< 8	16 to 64 (≈ 40 to 160 µM)		
Cc1ccc(OCc2noc(COc3ccc(F)c(C(N)=O)c3F)n2)cc1 [Example 263, 2,6-Difluoro-3-(3-[(4-methylphenoxy)methyl]-1,2,4-oxadiazol-5-ylmethoxy)benzenecarboxamide]	< 8	16 to 64 (≈ 42.6 to 171 µM)		
COc1cccc(COc2ccc(F)c(C(N)=O)c2F)c1 [Example 116, 2,6-Difluoro-3-(3-methoxybenzyloxy)-benzamide]	16 to 64 (≈ 54.6 to 218 µM)	16 to 64 (≈ 54.6 to 218 µM)		
NC(=O)c1c(F)ccc(OCc2nc(-c3ccc(OC(F)(F)F)cc3)no2)c1F [Example 292]	< 8	< 8		
NC(=O)c1c(F)ccc(OCc2nc(-c3c(Cl)cccc3Cl)no2)c1F [Example 260, 3-[3-(2,6-Dichlorophenyl)-1,2,4-oxadiazol-5-yl]methoxy-2,6-difluorobenzenecarboxamide]	< 8	< 8		
C=CCc1sc(COc2ccc(F)c(C(N)=O)c2F)nc1-c1ccc(OC)cc1 [Example 120, 3-[5-Allyl-4-(4-methoxy-phenyl)-thiazol-2-ylmethoxy]-2,6-difluoro-benzamide]	< 8	< 8		
NC(=O)c1c(F)ccc(OCc2nc(Cc3ccc(Cl)cc3)no2)c1F [Example 265, 3-[3-(4-Chlorobenzyl)-1,2,4-oxadiazol-5-yl]methoxy-2,6-difluorobenzenecarboxamide]	< 8	16 to 64 (≈ 42.1 to 169 µM)		
CC(C)(C)c1ccc2oc(COc3ccc(F)c(C(N)=O)c3F)nc2c1 [Example 213, 3-[5-(tert-Butyl)-1,3-benzoxazol-2-yl]methoxy-2,6-difluorobenzenecarboxamide]	< 8	16 to 64 (≈ 44.4 to 178 µM)		
NC(=O)c1c(F)ccc(OCc2nc(-c3cccc(O)c3)no2)c1F [Example 257, 2,6-Difluoro-3-[3-(3-hydroxyphenyl)-1,2,4-oxadiazol-5-yl]methoxybenzenecarboxamide]	< 8	< 8		
CCCCCC/C=C/COc1cccc(C(N)=O)c1 [Example 49, 3-[(E)-2-Nonenyloxy]benzenecarboxamide]	< 8	< 8		

Molecule	MIC (Bacillus subtilis 168CA) [µg/mL]	MIC [1] [µg/mL]	Bacillus subtilis MICs Activity (Bacillus subtilis 168CA)	Staphylococcus aureus MICs Activity [1]
CCc1ccc(-c2noc(COc3ccc(F)c(C(N)=O)c3F)n2)cc1 [Example 250, 3-[3-(4-Ethylphenyl)-1,2,4-oxadiazol-5-yl]methoxy-2,6-difluorobenzenecarboxamide]	< 8	< 8		
COc1ccc(-c2nc(COc3ccc(F)c(C(N)=O)c3F)cs2)cc1 [Example 323, 2,6-Difluoro-3-[2-(4-methoxy-phenyl)-thiazol-4-ylmethoxy]-benzamide]	< 8	< 8		
NC(=O)c1c(F)ccc(OCc2noc(-c3ccccc3)n2)c1F [Example 239, 2,6-Difluoro-3-[(5-phenyl-1,2,4-oxadiazol-3-yl)methoxy]benzenecarboxamide]	16 to 64 (≈ 48.3 to 193 µM)	16 to 64 (≈ 48.3 to 193 µM)		
NC(=O)c1c(Cl)ccc(OCc2nc(-c3ccc(Cl)cc3)cs2)c1F [Example 273, 6-Chloro-3-[4-(4-chloro-phenyl)-thiazol-2-ylmethoxy]-2-fluoro-benzamide]	< 8	< 8		
NC(=O)c1c(F)ccc(OCc2nc(-c3ccccn3)cs2)c1F [Example 115, 2,6-Difluoro-3-(4-pyridin-2-yl-thiazol-2-ylmethoxy)-benzamide]	16 to 64 (≈ 46.1 to 184 µM)	< 8		
NC(=O)c1c(F)ccc(OCc2nc3cc(Cl)ccc3o2)c1F [Example 210, 3-[(5-Chloro-1,3-benzoxazol-2-yl)methoxy]-2,6-difluorobenzenecarboxamide]	< 8	< 8		
Cl.NC(=O)c1c(F)ccc(OCc2nc(-c3ccc(N)cc3)no2)c1F [Example 251, 3-[3-(4-Aminophenyl)-1,2,4-oxadiazol-5-yl]methoxy-2,6-difluorobenzenecarboxamide hydrochloride salt]	16 to 64	16 to 64		
3-Pentyl-2,3-dihydro-1,4-benzodioxine-6-carboxamide and 2-pentyl-2,3-dihydro-1,4-benzodioxine-6-carboxamide [Example 95]			B (‘B’ if the MIC was 16 to 64 micrograms/ml)	C (‘C’ if the MIC was greater than 64 micrograms/ml)
Cc1ccc2sc(COc3ccc(F)c(C(N)=O)c3F)cc2c1 [Example 205, 2,6-Difluoro-3-[(5-methyl-1-benzothiophen-2-yl)methoxy]benzenecarboxamide]	< 8	< 8		
NC(=O)c1c(F)ccc(OCc2nc(-c3cccc(O)c3)cs2)c1F [Example 334, 2,6-Difluoro-3-[4-(3-hydroxy-phenyl)-thiazol-2-ylmethoxy]-benzamide]	16 to 64 (≈ 44.2 to 177 µM)	< 8		
NC(=O)c1c(F)ccc(OCc2csc(-c3ccccc3)n2)c1F [Example 233, 2,6-Difluoro-3-[(2-phenyl-1,3-thiazol-4-yl)methoxy]benzenecarboxamide]	< 8	< 8		
Cn1ccnc1COc1ccc(F)c(C(N)=O)c1F [Example 194, 2,6-Difluoro-3-[(1-methyl-1H-imidazol-2-yl)methoxy]benzenecarboxamide]	> 64	> 64		
Cc1csc(COc2ccc(F)c(C(N)=O)c2F)c1 [Example 187, 2,6-Difluoro-3-[(4-methyl-2-thienyl)methoxy]benzenecarboxamide]	16 to 64 (≈ 56.5 to 226 µM)	16 to 64 (≈ 56.5 to 226 µM)		
NC(=O)c1c(F)ccc(OCc2nc(-c3cccs3)no2)c1F [Example 153, 2,6-Difluoro-3-(3-thiophen-2-yl-[1,2,4]oxadiazol-5-ylmethoxy)-benzamide]	< 8	< 8		
NC(=O)c1cccc(OCC(=O)OC2CCCCC2)c1 [Example 27, Cyclohexyl 2-[3-(aminocarbonyl)phenoxy]acetate]	> 64	> 64		
CCCC/C=C/CCOc1cccc(C(N)=O)c1 [Example 40, 3-[(E)-3-Octenyloxy]benzenecarboxamide]	< 8	< 8		
NC(=O)c1c(F)ccc(OCc2cccc(-n3cccc3)c2)c1F [Example 161, 2,6-Difluoro-3-(3-pyrrol-1-yl-benzyloxy)-benzamide]	< 8	< 8		
C=CCCCCCOc1cccc(C(N)=O)c1 [Example 17, 3-(6-Heptenyloxy)benzenecarboxamide]	16 to 64 (≈ 68.6 to 274 µM)	16 to 64 (≈ 68.6 to 274 µM)		
COc1ccc(-c2nc(COc3ccc(F)c(C(N)=O)c3F)sc2-c2cccnc2)cc1 [Example 121, 2,6-Difluoro-3-[4-(4-methoxy-phenyl)-5-pyridin-3-yl-thiazol-2-ylmethoxy]-benzamide]	< 8	< 8		
CCCCCC/C=C\COc1cccc(C(N)=O)c1 [Example 47, 3-[(Z)-2-Nonenyloxy]benzenecarboxamide]	< 8	16 to 64 (≈ 61.2 to 245 µM)		
COc1ccc(-c2nc(COc3ccc(F)c(C(N)=O)c3F)sc2-c2ccccc2N)cc1 [Example 283, 2,6-Difluoro-3-[5-(2-amino-phenyl)-4-(4-methoxy-phenyl)-thiazol-2-ylmethoxy]-benzamide]	< 8	< 8		

Source: US8088791B2, “Antibacterial agents” (Biots Scientific Management Pty Ltd, priority 2006, dated 2012)
